Laboratory results published in PMC11500415, “Chemical inhibition of stomatal differentiation by perturbation of the master-regulatory bHLH heterodimer via an ACT-Like domain” (Nature Communications, 2024).
Entries after “also recorded” stand apart in the source; their conditions may differ.

Legend:
[1] = tested on: Commelina benghalensis stomatal opening induced by light; assay: Measurement of stomatal opening; format: in vivo; settings: 50 µM; light 3 h (Supplementary Fig. 1)
Method: The experiments were performed as described previously[30],[68]. Briefly, Stomidazolone or ABA were added to a multi-well plate with basal buffer [5 mM MES/bistrispropane (pH 6.5), 50 mM KCl, and 0.1 mM CaCl2] to be diluted to a final concentration of 50 or 20 µM, respectively. C. benghalensis plants were incubated in the dark overnight; then, 4 mm diameter leaf discs were excised from fully expanded leaves using a hole punch (Biopsy Punch, Kai Medical). Samples were immersed in a basal buffer containing compounds for 30 min before being exposed to light (150 µmol m^−2 s^−1 red light and 50 µmol m^−2 s^−1 blue light) for 3 h. The stomatal apertures were observed using a stereoscopic microscope (BX43; Olympus). The microscopic images were acquired with a charge-coupled device (CCD) camera (DP27; Olympus), followed by autofocus image processing using cellSens standard software (Olympus). Measurement of stomatal apertures of C. benghalensis was performed by using an automation program, DeepStomata[69].

SCRM-SPCH heterodimer = target: T1, SCRM-SPCH heterodimer (Arabidopsis thaliana, UniProt Q700C7); format: cell-based; settings: 100 μM, 1 day
T1 construct: heterodimerization of SCRM with full-length SPCH, MUTE, or FAMA in the context of the plant cells; combinations of split YFP constructs fused to the full-length stomatal bHLH proteins; nYFP (N terminus of EYFP, 174 amino acids); cYFP (C terminus of EYFP, 64 amino acids); expressed in transfected cells; host or cells: Nicotiana benthamiana leaves (Agrobacterium infiltration)
T1 sequence (Q700C7 1-364): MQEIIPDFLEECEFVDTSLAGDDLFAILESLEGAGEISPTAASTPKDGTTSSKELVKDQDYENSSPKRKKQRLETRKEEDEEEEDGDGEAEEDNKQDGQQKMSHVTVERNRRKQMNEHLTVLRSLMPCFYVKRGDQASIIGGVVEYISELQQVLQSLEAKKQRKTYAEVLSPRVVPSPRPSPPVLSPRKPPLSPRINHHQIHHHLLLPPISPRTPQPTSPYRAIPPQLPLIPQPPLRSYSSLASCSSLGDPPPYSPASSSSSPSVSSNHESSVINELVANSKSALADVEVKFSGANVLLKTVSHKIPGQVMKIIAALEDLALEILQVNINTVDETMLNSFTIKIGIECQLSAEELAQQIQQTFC
Excerpt: For ratiometric BiFC assays, the cDNAs of SPCH, MUTE, and FAMA were cloned into the 35S CaMV promoter-driven destination vector pSPYNE, which contains the N terminus of the EYFP protein (nYFP-174 amino acids), while the cDNA of SCRM and SCRM2 was inserted into pSPYCE, which contains the C terminus of the EYFP protein (cYFP-64 amino acids) (see Supplementary Table 5 for detailed information of the constructs). The constructs were then transformed into Agrobacterium tumefaciens strain GV3101. The Agrobacterium was resuspended in infiltration buffer (10 mM MgCl2, 10 mM 2-(N-morpholino)ethanesulfonic acid [pH 5.6], and 150 µM acetosyringone). Bacterial culture densities were adjusted to a final optical density (OD600) of 1.0, and the cell suspensions were incubated at room temperature for 4 hours prior to infiltration. Equal volumes of cultures carrying the corresponding complementary pair of BiFC constructs (YFPn and YFPc), along with CaMV35S::Histone H2B-mScarlet-I3 and the silencing suppressor plasmid p19 (a gift from Dr. Sir David Baulcombe) were mixed and then co-infiltrated into 4-week-old N. benthamiana leaves. The infiltrated N. benthamiana leaves were incubated at 25 °C for 2 days. Subsequently, leaf discs were cut out and cultured in mock or in liquid 1/2 MS media in mock (DMSO) or 100 µM Stomidazolone for 1 day. Confocal imaging of N. benthamiana leaves was performed using a Leica SP8 confocal microscope using a 20X objective lens (Leica Microsystems), simultaneously capturing YFP (excitation at 518 nm and emission at 530 nm) and mScarlet-I3 (excitation at 569 nm and emission at 600 nm) differential interference contrast channels.

## O=C1C(c2ccccc2)=NC(NS(=O)(=O)c2ccccc2)(c2ccccc2)N1S(=O)(=O)c1ccccc1 (centres unmarked) [Stomidazolone]
[1]
  effect on stomatal movement (in words): did not exhibit any discernable effects; also recorded: does not affect
SCRM-SPCH heterodimer
  effect on heterodimerization, YFP/RFP signal ratio (in words): weakly affecting
